Source: publication PMC11157767 (Molecular Cancer, 2024)
Where “and” joins values, the source holds several entries; their conditions need not be identical. Equal entries are not always repeated. Where two headings read alike, the source gives them in different places.

Columns and labels:
[1] = test system: TRIM24-MET L97 human glioma cell lines; test: γH2AX immunofluorescence after 4 Gy irradiation, TRIM24-MET human glioma cells; assay type: cell-based; details: 1, 2, 3 and 4 hours following 4 Gy irradiation
Experimental: Error bars display standard error of mean, statistical significance was determined using t-test analysis. (****;p<0.0001, ***;p<0.001, **;p<0.01, *;p<0.05). […] Each dot represents an individual replicate. Error bars display standard error of the mean. Statistical significance was determined using a One-Way ANOVA followed by Tukey’s multiple comparisons test (*p<0.05, **p<0.01, ***p<0.001, ****p<0.0001).

TRIM24-MET-i PDOX = details: for BLI signal, individual mice: PDX trial cap vs cabo
Experimental: All treatments started 18 days after transplantation. Radiotherapy was administered at 0.5 Gy per day, delivering 10 Gy total.
Each line represents one mouse. The ends of lines indicate the onset of neurological symptoms and thereby the endpoints. Treatment started on day 13.

For CNC(=O)c1ccc(-c2cnc3ncc(Cc4ccc5ncccc5c4)n3n2)cc1F [Capmatinib], the “percentage of cells with ≥20 γH2AX-foci vs DMSO” value [1] was “significantly higher”, the “BLI signal, individual mice” value (TRIM24-MET-i PDOX; day 7) was 3.18E+07 and 1.72E+07 and 3.36E+07 and the “BLI signal, individual mice” value (TRIM24-MET-i PDOX; day 9) was 7.47E+07 and 3.47E+07. For the same molecule, the “BLI signal, individual mice” value (TRIM24-MET-i PDOX; day 14) was 5.84E+07 and 2.51E+07, the “BLI signal, individual mice” value (TRIM24-MET-i PDOX; day 17) was 2.44E+07 and 1.00E+07 and the “BLI signal, individual mice” value (TRIM24-MET-i PDOX; day 21) was 1.66E+07 and 1.85E+07. The “BLI signal, individual mice” value (TRIM24-MET-i PDOX; day 24) was 1.50E+07 and 1.24E+07, the “BLI signal, individual mice” value (TRIM24-MET-i PDOX; day 28) was 1.39E+07 and 1.53E+07 and the “BLI signal, individual mice” value (TRIM24-MET-i PDOX; day 31) was 7.80E+06 and 1.43E+07. The “BLI signal, individual mice” value (TRIM24-MET-i PDOX; day 35) was 9.55E+06 and 1.60E+07 and 7.43E+06, the “BLI signal, individual mice” value (TRIM24-MET-i PDOX; day 38) was 8.92E+06 and 1.56E+07 and 7.00E+06 and the “BLI signal, individual mice” value (TRIM24-MET-i PDOX; day 42) was 7.91E+06 and 1.63E+07 and 5.51E+06. The “BLI signal, individual mice” value (TRIM24-MET-i PDOX; day 45) was 9.52E+06 and 1.30E+07 and 6.98E+06, the “BLI signal, individual mice” value (TRIM24-MET-i PDOX; day 49) was 7.93E+06 and 9.97E+06 and 5.88E+06 and the “BLI signal, individual mice” value (TRIM24-MET-i PDOX; day 52) was 7.48E+06 and 8.25E+06 and 4.19E+06. The “BLI signal, individual mice” value (TRIM24-MET-i PDOX; day 56) was 8.25E+06 and 1.00E+07 and 5.09E+06, the “BLI signal, individual mice” value (TRIM24-MET-i PDOX; day 59) was 2.02E+06 and 8.98E+06 and 4.17E+06 and the “BLI signal, individual mice” value (TRIM24-MET-i PDOX; day 63) was 5.64E+06 and 9.13E+06 and 4.23E+06. The “BLI signal, individual mice” value (TRIM24-MET-i PDOX; day 66) was 6.00E+06 and 8.25E+06 and 4.18E+06, the “BLI signal, individual mice” value (TRIM24-MET-i PDOX; day 70) was 1.53E+06 and 8.82E+06 and 4.89E+06 and the “BLI signal, individual mice” value (TRIM24-MET-i PDOX; day 73) was 1.32E+06 and 6.23E+06 and 4.17E+06. For the same molecule, the “BLI signal, individual mice” value (TRIM24-MET-i PDOX; day 77) was 4.79E+05 and 1.07E+07 and 4.65E+06, the “BLI signal, individual mice” value (TRIM24-MET-i PDOX; day 80) was 4.21E+05 and 1.01E+07 and 4.77E+06 and the “BLI signal, individual mice” value (TRIM24-MET-i PDOX; day 87) was 5.96E+05 and 1.05E+07 and 4.96E+06. For the same molecule, the “BLI signal, individual mice” value (TRIM24-MET-i PDOX; day 94) was 8.51E+05 and 7.79E+06, the “BLI signal, individual mice” value (TRIM24-MET-i PDOX; day 101) was 4.10E+05 and 7.68E+06 and the “BLI signal, individual mice” value (TRIM24-MET-i PDOX; day 108) was 4.16E+05 and 7.10E+06. For the same molecule, the “BLI signal, individual mice” value (TRIM24-MET-i PDOX; day 115) was 3.96E+05 and 8.39E+06, the “BLI signal, individual mice” value (TRIM24-MET-i PDOX; day 122) was 5.52E+05 and 6.96E+06 and the “BLI signal, individual mice” value (TRIM24-MET-i PDOX; day 129) was 5.43E+05 and 7.67E+06. For the same molecule, the “BLI signal, individual mice” value (TRIM24-MET-i PDOX; day 134) was 7.37E+05 and 1.29E+07, the “BLI signal, individual mice” value (TRIM24-MET-i PDOX; day 142) was 2.48E+05 and 8.31E+06 and the “BLI signal, individual mice” value (TRIM24-MET-i PDOX; day 147) was 1.01E+05 and 6.09E+06. For the same molecule, the “BLI signal, individual mice” value (TRIM24-MET-i PDOX; day 154) was 7.12E+04 and 6.90E+06, the “BLI signal, individual mice” value (TRIM24-MET-i PDOX; day 161) was 9.26E+04 and 5.65E+06 and the “BLI signal, individual mice” value (TRIM24-MET-i PDOX; day 175) was 1.61E+05 and 5.72E+06. For the same molecule, the “BLI signal, individual mice” value (TRIM24-MET-i PDOX; day 182) was 4.78E+04 and 7.21E+06, the “BLI signal, individual mice” value (TRIM24-MET-i PDOX; day 190) was 3.12E+05 and 5.75E+06 and the “BLI signal, individual mice” value (TRIM24-MET-i PDOX; day 196) was 6.90E+05 and 4.81E+06. The “BLI signal, individual mice” value (TRIM24-MET-i PDOX; day 203) was 1.41E+06 and 5.43E+06, the “BLI signal, individual mice” value (TRIM24-MET-i PDOX; day 210) was 4.51E+07 and 1.12E+07 and the “BLI signal, individual mice” value (TRIM24-MET-i PDOX; day 217) was 1.20E+07. The “BLI signal, individual mice” value (TRIM24-MET-i PDOX; day 224) was 3.17E+07, the “BLI signal, individual mice” value (TRIM24-MET-i PDOX; day 231) was 3.11E+08 and the “BLI signal, individual mice” value (TRIM24-MET-i PDOX; day 238) was 8.31E+08. The “survival over the 19-week treatment period” value (TRIM24-MET-i PDOX; capmatinib BID, 8 mice) was “all mice surviving”, the “mice with initial tumor regression (luciferase imaging)” value (TRIM24-MET-i PDOX; capmatinib monotherapy) was “two out of eight” and the “mice with stable disease (BLI)” value (TRIM24-MET-i PDOX; capmatinib monotherapy) was “six out of eight”. The “mice with tumor relapse within 6 months after treatment ceased” value (TRIM24-MET-i PDOX; capmatinib, treated 133 days) was 7 of 8.
